Reference: US20150376225A1, “NOVEL COMPOUNDS OF 11BETA-HYDROXY-STEROIDS FOR USE IN MITOCHONDRIA BIOGENESIS AND DISEASES ASSOCIATED WITH MITOCHONDRIAL DYSFUNCTION OR DEPLETION” (SPHAERA PHARMA PVTD. LTD., priority 2013, published 2015)

system: AMPK; experiment: AMPK activation, cell based ELISA in Hep G2 cells; details: 1 h incubation, DMSO control as 100%
Protocol: AMPK Activation Protocol:
AMPK activation potential of the compounds was evaluated using cell based ELISA.
Hepatoma (Hep G2) liver cells were maintained in a T 75 culture flask-containing 25 mM DMEM+10% fetal calf serum. The cells were maintained in a T 75 culture flask-containing medium (DMEM+10% fetal calf serum). On reaching a confluence of 70 to 80%, the cells were seeded in a 96 well plate at a density of 40,000 cells per well in 25 mM DMEM+10% FCS medium. The plates were then incubated at 37° C. with 5% CO2 for 24 hours. Various concentrations of drugs were prepared in DMSO and diluted to required concentration with the medium and incubated at 37° C. with 5% CO2 for 30 min and 1 h for Epicatechin analogs and 11-BHP analogs respectively. Metformin was used as positive control. Cells were fixed with 4% formaldehyde for 30 minutes at room temperature and washed three times with PBS containing 0.1% Triton X-100. Endogenous peroxidase was quenched with 1% H2O2 in PBS-T (0.1% Tween 20) for 30 minutes and washed three times in PBS-T. Cells were blocked with 1% BSA in PBS-T for 1 hour.

Compared with `CC(=O)[C@H]1CCC2C3CC=C4C[C@@H](O)CC[C@]4(C)C3[C@@H](O)C[C@@]21C` (stereo partly drawn) [Compound 1016, 1-((3S,10R,11S,13S,17S)-3,11-dihydroxy-10,13-dimethyl-2,3,4,7,8,9,10,11,12,13,14,15,16,17-tetradecahydro-1H-cyclopenta[a]phenanthren-17-yl)ethan-1-one], `[2H][C@]1(O)CC[C@@]2(C)C(=CCC3C2[C@@H](O)C[C@@]2(C)C3CC[C@@H]2C(C)=O)C1` (stereo partly drawn) [Compound 1045, 1-((3S,10R,11S,13S,17S)-3,11-dihydroxy-10,13-dimethyl-2,3,4,7,8,9,10,11,12,13,14,15,16,17-tetradecahydro-1H-cyclopenta[a]phenanthren-17-yl-3-d)ethan-1-one] is higher in “% activation pAMPK at 1 nM” value: 104% for the first, 116% for the second.

Compared with `C[C@]12CC[C@H](O)CC1=CCC1C2[C@@H](O)C[C@@]2(C)C1CC[C@@H]2O` (stereo partly drawn) [Compound 1017, (3S,10R,11S,13S,17S)-10,13-dimethyl-2,3,4,7,8,9,10,11,12,13,14,15,16,17-tetradecahydro-1H-cyclopenta[a]phenanthrene-3,11,17-triol], `CC(O)C1CCC2C3CC=C4C[C@@H](O)CC[C@]4(C)C3[C@@H](O)C[C@]12C` (stereo partly drawn) [Compound 1036, (3S,10R,11S,13S)-17-(1-hydroxyethyl)-10,13-dimethyl-2,3,4,7,8,9,10,11,12,13,14,15,16,17-tetradecahydro-1H-cyclopenta[a]phenanthrene-3,11-diol] is higher in “% activation pAMPK at 1 nM” value: 97% for the first, 102% for the second.

Compared with `C[C@]12CCC(=O)C=C1CCC1C2[C@@H](O)C[C@@]2(C)C1CC[C@@H]2O` (stereo partly drawn) [Compound 1018, (10R,11S,13S,17S)-11,17-dihydroxy-10,13-dimethyl-1,2,6,7,8,9,10,11,12,13,14,15,16,17-tetradecahydro-3H-cyclopenta[a]phenanthren-3-one], `C[C@]12C[C@H](O)C3C(CCC4=CC(=O)CC[C@@]43C)C1CCC2C(=O)O` (stereo partly drawn) [Compound 1020, (10R,11S,13S)-11-hydroxy-10,13-dimethyl-3-oxo-2,3,6,7,8,9,10,11,12,13,14,15,16,17-tetradecahydro-1H-cyclopenta[a]phenanthrene-17-carboxylic acid] is higher in “% activation pAMPK at 1 nM” value: 106% for the first, 132% for the second.

Compared with `C[C@]12CCC(=O)C=C1CCC1C2[C@@H](O)C[C@]2(C)C(=O)CCC12` (stereo partly drawn) [Compound 1019, (10R,11S,13S)-11-hydroxy-10,13-dimethyl-1,6,7,8,9,10,11,12,13,14,15,16-dodecahydro-3H-cyclopenta[a]phenanthrene-3,17(2H)-dione], `C[C@]12CCC(=O)C=C1CCC1C2[C@@H](O)C[C@]2(C)/C(=N/O)CCC12` (stereo partly drawn) [Compound 1024, (10R,11S,13S,E)-11-hydroxy-17-(hydroxyimino)-10,13-dimethyl-1,2,6,7,8,9,10,11,12,13,14,15,16,17-tetradecahydro-3H-cyclopenta[a]phenanthren-3-one] is higher in “% activation pAMPK at 1 nM” value: 103% for the first, 133% for the second.

Going from `CC(O)C1CCC2C3CC=C4CC5(CC[C@]4(C)C3[C@@H](O)C[C@]12C)OCCO5` (stereo partly drawn) [Compound 1021, (10R,11S,13S)-17-(1-hydroxyethyl)-10,13-dimethyl-1,2,4,7,8,9,10,11,12,13,14,15,16,17-tetradecahydrospiro[cyclopenta[a]phenanthrene-3,2′-[1,3]dioxolan]-11-ol] to `CC(=O)C1CCC2C3CC=C4CC5(CC[C@]4(C)C3[C@@H](O)C[C@]12C)OCCO5` (stereo partly drawn) [Compound 1029, 1-((10R,11S,13S)-11-hydroxy-10,13-dimethyl-1,2,4,7,8,9,10,11,12,13,14,15,16,17-tetradecahydrospiro[cyclopenta[a]phenan-threne-3,2′-[1,3]dioxolan]-17-yl)ethan-1-one], the “% activation pAMPK at 1 nM” value falls from 129% to 105%.

Compared with `C[C@]12CC/C(=N/O)C=C1CCC1C2[C@@H](O)C[C@]2(C)/C(=N/O)CCC12` (stereo partly drawn) [Compound 1022, (3Z,10R,11S,13S,17E)-11-hydroxy-10,13-dimethyl-1,6,7,8,9,10,11,12,13,14,15,16-dodecahydro-3H-cyclopenta[a]phenanthrene-3,17(2H)-dione dioxime], `C/C(=N/O)[C@H]1CCC2C3CCC4=C/C(=N\O)CC[C@]4(C)C3[C@@H](O)C[C@@]21C` (stereo partly drawn) [Compound 1031, (10R,11S,13S,17S,Z)-11-hydroxy-17-((Z)-1-(hydroxyimino)ethyl)-10,13-dimethyl-1,2,6,7,8,9,10,11,12,13,14,15,16,17-tetradecahydro-3H-cyclopenta[a]phenanthren-3-one oxime] is lower in “% activation pAMPK at 1 nM” value: 129% for the first, 109% for the second.

Going from `C[C@]12CCC(=O)C=C1CCC1C2[C@@H](O)C[C@@]2(C)C1CC[C@]2(O)C(=O)O` (stereo partly drawn) [Compound 1023, (10R,11S,13S,17R)-11,17-dihydroxy-10,13-dimethyl-3-oxo-2,3,6,7,8,9,10,11,12,13,14,15,16,17-tetradecahydro-1H-cyclopenta[a]phenanthrene-17-carboxylic acid] to `C[C@]12CCC(=O)C=C1CCC1C2[C@@H](O)C[C@@]2(C)C1CC[C@@]21OCC1=O` (stereo partly drawn) [Compound 1028, (10R,11S,13S,17R)-11-hydroxy-10,13-dimethyl-1,6,7,8,9,10,11,12,13,14,15,16-dodecahydrospiro[cyclopenta[a]phenanthrene-17,2′-oxetane]-3,3′(2H)-dione], the “% activation pAMPK at 1 nM” value falls from 127% to 103%.

Compared with `CC(=O)[C@H]1CCC2C3CCC4=CC(=O)CC[C@]4(C)C3[C@@H](O)C[C@@]21C` (stereo partly drawn) [Compound 1025, (10R,11S,13S,17S)-17-acetyl-11-hydroxy-10,13-dimethyl-1,2,6,7,8,9,10,11,12,13,14,15,16,17-tetradecahydro-3H-cyclopenta[a]phenanthren-3-one], `CN(C)C(=O)C1CCC2C3CCC4=CC(=O)CC[C@]4(C)C3[C@@H](O)C[C@]12C` (stereo partly drawn) [Compound 1030, (10R,11S,13S)-11-hydroxy-N,N,10,13-tetramethyl-3-oxo-2,3,6,7,8,9,10,11,12,13,14,15,16,17-tetradecahydro-1H-cyclopenta[a]phenanthrene-17-carboxamide] is lower in “% activation pAMPK at 1 nM” value: 118% for the first, 105% for the second.

Compared with `CN(C)C(=O)C1CCC2C3CCC4CC(=O)CC[C@]4(C)C3[C@@H](O)C[C@]12C` (stereo partly drawn) [Compound 1033, (10S,11S,13S)-11-hydroxy-N,N,10,13-tetramethyl-3-oxohexadecahydro-1H-cyclopenta[a]phenanthrene-17-carboxamide], `CC(=O)[C@H]1CCC2C3CCC4C[C@@H](O)CC[C@]4(C)C3[C@@H](O)C[C@@]21C` (stereo partly drawn) [Compound 1042, 1-((3S,10S,11S,13S,17S)-3,11-dihydroxy-10,13-dimethylhexadecahydro-1H-cyclopenta[a]phenanthren-17-yl)ethan-1-one] is lower in “% activation pAMPK at 1 nM” value: 107% for the first, 96% for the second.

Going from `C[C@]12CCC(=O)CC1CCC1C2[C@@H](O)C[C@]2(C)C(=O)CCC12` (stereo partly drawn) [Compound 1034, (10S,11S,13S)-11-hydroxy-10,13-dimethyltetradecahydro-3H-cyclopenta[a]phenanthrene-3,17(2H)-dione] to `CC(O)[C@H]1CCC2C3CCC4C[C@@H](O)CC[C@]4(C)C3[C@@H](O)C[C@@]21C` (stereo partly drawn) [Compound 1040, (3S,10S,11S,13S,17S)-17-(1-hydroxyethyl)-10,13-dimethylhexadecahydro-1H-cyclopenta[a]phenanthrene-3,11-diol], the “% activation pAMPK at 1 nM” value falls from 104% to 95%.

First: CC(=O)[C@H]1CCC2C3CCC4=CC(=O)CC[C@]4(C)C3[C@@](C)(O)C[C@@]21C (stereo partly drawn) [Compound 1035, (10R,11S,13S,17S)-17-acetyl-11-hydroxy-10,11,13-trimethyl-1,2,6,7,8,9,10,11,12,13,14,15,16,17-tetradecahydro-3H-cyclopenta[a]phenanthren-3-one]
Second: CO[C@H]1CC[C@@]2(C)C(=CCC3C2[C@@H](O)C[C@@]2(C)C3CC[C@@H]2C(C)=O)C1 (stereo partly drawn) [Compound 1038, 1-((3S,10R,11S,13S,17S)-11-hydroxy-3-methoxy-10,13-dimethyl-2,3,4,7,8,9,10,11,12,13,14,15,16,17-tetradecahydro-1H-cyclopenta[a]phenanthren-17-yl)ethan-1-one]
The “% activation pAMPK at 1 nM” value of the first is lower: 102% for the first, 103% for the second.

`CC(O)[C@H]1CC[C@H]2[C@@H]3CCC4=C[C@@H](O)CC[C@]4(C)[C@H]3[C@@H](O)C[C@]12C` (stereo partly drawn) [Compound 1037, (3S,8S,9S,10R,11S,13S,14S,17S)-17-(1-hydroxyethyl)-10,13-dimethyl-2,3,6,7,8,9,10,11,12,13,14,15,16,17-tetradecahydro-1H-cyclopenta[a]phenanthrene-3,11-diol] and `CC[C@H]1CCC2C3CC=C4C[C@@H](O)CC[C@]4(C)C3[C@@H](O)C[C@@]21C` (stereo partly drawn) [Compound 1041, (3S,10R,11S,13R,17S)-17-ethyl-10,13-dimethyl-2,3,4,7,8,9,10,11,12,13,14,15,16,17-tetradecahydro-1H-cyclopenta[a]phenanthrene-3,11-diol] are the same in “% activation pAMPK at 1 nM” value: 95% for the first, 95% for the second.

In the case of `CC(O)C1CCC2C3CCC4CC5(CC[C@]4(C)C3[C@@H](O)C[C@]12C)OCCO5` (stereo partly drawn) [Compound 1039, (10S,11S,13S)-17-(1-hydroxyethyl)-10,13-dimethylhexadecahydrospiro[cyclopenta[a]phenanthrene-3,2′-[1,3]dioxolan]-11-ol], the “% activation pAMPK at 1 nM” value is reported as 100%.
